Consider 26 molecules from paper PMC8308780, “Antiviral Activity of Isoquinolone Derivatives against Influenza Viruses and Their Cytotoxicity” (Pharmaceuticals, 2021).

Structures can show the parent of a compound that is named as a salt. Where two headings read alike, the source gives them in different places.

Series [1] has as its system A/Puerto Rico/8/34 (H1N1; PR8). As to the kind of experiment: microbe, parasite or virus in culture. The series is classed as cell-based. The following applies: Influenza A virus, read-out: EC50 against Influenza Virus PR8.
The subject of series [2] is A/Hong Kong/8/68 (H3N2; HK). As to the kind of experiment: microbe, parasite or virus in culture. The series is classed as cell-based. The following applies: Influenza A virus, read-out: EC50 against Influenza Virus HK.
Series [3] can be described thus: in vitro. The following applies: dog.
Series [4] has as its system B/Lee/40 (Lee). As to the kind of experiment: microbe, parasite or virus in culture. The series is classed as cell-based, influenza B virus. The following applies: unidentified influenza virus, MDCK, read-out: EC50 against Influenza Virus Lee.
Series [5] relates to MDCK cells. As to the kind of experiment: Fluorescein diacetate-based cell viability assay, mock-infected cells (cytotoxicity).
For series [6], the system named is PR8 virus. To be noted: MDCK cells, subtoxic concentrations, 1 day.
Series [7] has as its system PR8 virus. It counts as cell-based, influenza A virus.
Series [8] deals with MDCK cells. The following applies: 2-day treatment, concentrations above 0.41 µM.
Series [9] deals with PR8 virus. As to the kind of experiment: microbe, parasite or virus in culture. The series is classed as cell-based, influenza A virus. To be noted: for antiviral activity on exposure during viral adsorption: 0–1 h at 4 °C, compound 1 10 µM, EGCG 1 µM.
The target in series [10] is influenza A viral polymerase (Influenza A virus, UniProt P03428+P03431+P03433). The series is classed as cell-based.
Series [11] can be described thus: in vitro. The following applies: dog. This is another data set of the same source.
Series [12] concerns PR8 virus. To be noted: 3 or 30 µM, 5 h post-infection.
Protocol: For fluorescence microscopy, PR8 virus-infected MDCK cells (MOI, 3) seeded onto 4-well slides (8.5 × 10^4 cells per well) were treated with DMSO (delivery vehicle), compound 1, or RBV at 33 °C for 5 h. After fixing and permeabilization, viral NP was visualized using an anti-NP antibody (Santa Cruz Biotechnology, Santa Cruz, CA, USA), followed by an Alexa 488-conjugated goat anti-mouse IgG (Invitrogen) [10]. Cells were counterstained with a Vectashield mounting medium containing DAPI (Vector Laboratories, Burlingame, CA, USA). Images were captured under a Zeiss LSM 700 confocal microscope (Carl Zeiss, Thornwood, NY, USA).
Series [13] deals with influenza A and B viruses (PR8, HK, Lee). As to the kind of experiment: Cytopathic effect assay, values given across the viral strains tested. It counts as cell-based. To be noted: Influenza A virus. (In general: Cytopathic effects are the visible damage that an infection or toxin causes in cultured cells.)
Series [14] concerns the target NA (Influenza A virus, UniProt P03468). As to the kind of experiment: NA activity assay (NA-XTD kit) with purified PR8 virus. It counts as biochemical, influenza A virus PR8. To be noted: maximum concentration of 30 µM.
Protocol: An NA activity assay was performed by using the NA-XTD Influenza Neuraminidase assay kit (Applied Biosystems, Foster City, CA, USA) [25, 26]. The influenza A virus PR8 (2.8 × 10^3 PFU) was mixed with the same volume of compounds at 37 °C for 20 min. After an addition of NA-XTD substrate, the mixture was incubated at room temperature for 30 min. The luminescent signal was maximized by the addition of an NA-XTD accelerator according to the manufacturer’s instructions and read using a microplate luminometer (Centro LB960 system; Berthold Technologies, Bad Wildbad, Germany). Half maximum inhibitory concentrations (IC50s) were determined using GraphPad Prism 8.4.2.
Where [15] appears, read: A/Puerto Rico/8/34 (H1N1), MDCK cells.
[16] abbreviates: A/Hong Kong/8/68 (H3N2), MDCK cells.
Setting [17] is: PR8, HK and Lee strains, MDCK cells, read-out: EC50 values, range across influenza A and B viruses.

The term EC50 denotes the concentration giving half of the maximal effect. In the case of `NC12CC3CC(CC(C3)C1)C2` [AMT, amantadine hydrochloride, reference compound], the results for the EC50 in [1] (setting [15]), in [2] (setting [16]) and in series [4] were over 300 µM, 1.6 µM and over 300 µM, respectively. The molecule also yielded a CC50 at 3 days in series [3] (mock-infected MDCK cells) of over 300 µM.

For orientation: inhibition means how much of the control response was suppressed. In general, viability refers to the share of living cells, or the viability signal relative to a control. Low values mean a greater loss of cells, high ones better survival. On to `CCc1cc2c(cc1-c1cc3ccc(OC)c(OC)c3c(=O)n1C)OCO2` [Compound 1, 3-(6-ethylbenzo[d][1,3]dioxol-5-yl)-7,8-dimethoxy-2-methylisoquinolin-1(2H)], for which the EC50 is 0.2 µM in series [1] (setting [15]), 0.3 µM in series [2] (setting [16]), 0.6 µM in series [4] and 0.2 to 0.6 µM in series [13] (setting [17]). Besides, the cell death in [5] (incubation for 2 days, concentrations > 0.41 µM, fluorescein diacetate) is over 40%. For the same molecule, the “viral protein expression (Western blot)” value in [6] was “reducing the expression of viral proteins, including NP and HA”. For the same molecule, in [7], the “progeny virus production (plaque assay)” value is given as “reducing the number of viral progeny released into the culture supernatant”. Also, the “cell death (MTT)” value in series [8] is over 40%. Further, the “antiviral activity on exposure during viral adsorption” value in series [9] was “failed to induce antiviral activity”. The inhibition at 10 µM in series [9] (Influenza A virus, PR8, 7 h, read-out: inhibition of plaque formation) was over 80%. Besides, the viral polymerase activity result in series [10] is listed as “suppressed viral RNA replication/transcription”. The molecule also showed a viability at 1 day, 11.11 µM in [11] of 80%. In series [12], the “NP-positive cells (confocal microscopy)” value is “few or no NP-positive cells”. In series [3], this molecule gave a CC50 at 3 days of 39 µM.

Regarding `O=c1[nH]c(-c2ccccc2)cc2ccccc12` [Compound 2, 3-phenylisoquinolone], the EC50 in [1] (setting [15]) was 45 µM; in series [2] (setting [16]) it was 73.4 µM; in series [4], 88.1 µM. The CC50 at 3 days in [3] was over 300 µM.

Take `O=c1[nH]c(-c2ccccc2O)cc2ccccc12` [Compound 3]: the EC50 in series [1] (setting [15]) was determined as 57 µM; in series [2] (setting [16]) it was 103 µM; in series [4] it was 65 µM. In series [3], this molecule showed a CC50 at 3 days of over 300 µM.

Consider `O=c1[nH]c(-c2ccccc2CO)cc2ccccc12` [Compound 4], for which the EC50 in series [1] (setting [15]) came to 52.4 µM; in series [2] (setting [16]) it was 81.3 µM; in [4] it was 17.2 µM. Further, the CC50 at 3 days in series [3] was over 300 µM.

As to `COc1ccccc1-c1cc2ccccc2c(=O)[nH]1` [Compound 5], the EC50 in series [1] (setting [15]) is over 120 µM; in [2] (setting [16]), over 120 µM; in series [4], 1.4 µM. Further, the CC50 at 3 days in [3] worked out at 120 µM.

In the case of `Cc1cccc(-c2cc3c(N(C)C)cccc3c(=O)[nH]2)c1` [Compound 6], the EC50 is over 300 µM in series [1] (setting [15]), over 300 µM in [2] (setting [16]) and 58.7 µM in series [4]. This molecule returned a CC50 at 3 days in [3] of over 300 µM.

In the case of `Cc1ccc(-c2cc3c(N(C)C)cccc3c(=O)[nH]2)cc1` [Compound 7], the EC50 in series [1] (setting [15]), in series [2] (setting [16]) and in series [4] was over 300 µM throughout. Also, the CC50 at 3 days in series [3] is over 300 µM.

As for `CN(C)c1cccc2c(=O)[nH]c(-c3ccc(Cl)cc3)cc12` [Compound 8], the EC50 in [1] (setting [15]), in series [2] (setting [16]) and in [4] was over 300 µM throughout. Further, the CC50 at 3 days in series [3] was over 300 µM.

As for `CN(C)c1cccc2c(=O)[nH]c(-c3ccc(Br)cc3)cc12` [Compound 9], the EC50 in series [1] (setting [15]), in series [2] (setting [16]) and in series [4] was over 300 µM throughout. Also, in series [3], the CC50 at 3 days was over 300 µM.

Regarding `COc1ccc(-c2cc3cc(C)ccc3c(=O)[nH]2)cc1OC` [Compound 11], the EC50 is 32.3 µM in [1] (setting [15]), 94.5 µM in series [2] (setting [16]) and 74.8 µM in [4]. The molecule also returned a CC50 at 3 days in [3] of over 300 µM.

As for `Cc1ccc2c(=O)[nH]c(-c3c(C)cccc3C)cc2c1` [Compound 12], the EC50 in [1] (setting [15]), in series [2] (setting [16]) and in series [4] was over 300 µM in each case. Also, the CC50 at 3 days in [3] was over 300 µM.

On to `COc1ccc(-c2[nH]c(=O)c3ccc(C)cc3c2Br)cc1OC` [Compound 13], for which the values for the EC50 in [1] (setting [15]), in [2] (setting [16]) and in [4] were 177 µM, 172 µM and over 300 µM, respectively. Moreover, the CC50 at 3 days in series [3] is over 300 µM.

Consider `Cc1ccc2c(=O)[nH]c(-c3c(C)cccc3C)c(Br)c2c1` [Compound 14], for which the EC50 in series [1] (setting [15]), in series [2] (setting [16]) and in series [4] was over 300 µM each time. For the same molecule, the CC50 at 3 days in series [3] was over 300 µM.

On to `Cn1c(-c2ccccc2C=O)cc2ccccc2c1=O` [Compound 15], for which the EC50 in [1] (setting [15]), in series [2] (setting [16]) and in series [4] was over 300 µM in each case. Moreover, the CC50 at 3 days in [3] was over 300 µM.

Consider `Cn1c(-c2ccccc2O)c(C=O)c2ccccc2c1=O` [Compound 16], for which the EC50 in series [1] (setting [15]), in [2] (setting [16]) and in series [4] was over 148 µM each time. For the same molecule, the CC50 at 3 days in series [3] is 148 µM.

As to `CCc1cc2c(cc1-c1cc3ccc(OC)c(O)c3c(=O)n1C)OCO2` [Compound 17], the EC50 in [1] (setting [15]) is 36.8 µM; in series [2] (setting [16]), 5.8 µM; in series [4] it was over 109 µM; in series [13] (influenza A strains only (PR8, HK), read-out: EC50 values, range against influenza A viral strains) it was 5.8 to 36.8 µM. The same molecule returned a CC50 at 3 days in series [3] of 109 µM.

On to `C=Cc1cc2c(cc1-c1cc3ccc(OC)c(OC)c3c(=O)n1C)OCO2` [Compound 18], for which the results for the EC50 in [1] (setting [15]), in series [2] (setting [16]) and in series [4] were 2.8 µM, 1.4 µM and 1.1 µM, respectively. The molecule also had a CC50 at 3 days in [3] of 40.3 µM.

Consider `COc1ccc2cc(-c3cc4c(cc3CCO)OCO4)n(C)c(=O)c2c1OC` [Compound 19], for which the EC50 in series [1] (setting [15]) is 59.9 µM; in [2] (setting [16]) it was 46.2 µM; in [4], 22.2 µM; in series [13] (setting [17]), 22.2 to 59.9 µM. This molecule also came in with a CC50 at 3 days in series [3] of over 300 µM.

In the case of `COc1ccc2cc(-c3cc4c(cc3CCO)OCO4)[nH]c(=O)c2c1OC` [Compound 20], the EC50 in [1] (setting [15]) is 29.8 µM; in series [2] (setting [16]), 11.9 µM; in series [4], 15.6 µM. Besides, the cell death result in series [5] (300 µM) is given as “approximately 30%”. In [3], this molecule yielded a CC50 at 3 days of over 300 µM.

Regarding `COc1cc2cc(-c3ccccc3)[nH]c(=O)c2cc1OC` [Compound 21, 6,7-dimethoxy-3-phenylisoquinolone], the EC50 in series [1] (setting [15]) was 18.5 µM; in [2] (setting [16]), 10.9 µM; in series [4], 9.9 µM; in series [13] (setting [17]), 9.9 to 18.5 µM. Further, the “progeny virus production (plaque assay)” value in series [7] is recorded as “inhibited progeny virus production into MDCK culture supernatants in a dose-dependent manner”. Moreover, in series [10], the viral polymerase activity result is “efficiently suppressed viral polymerase activity”. Moreover, the CC50 at 3 days in series [3] was over 300 µM. In addition, the “inhibitory effect on NA activity” value in series [14] is “no inhibitory effect”.

Consider `COc1cc2cc(-c3ccccc3O)[nH]c(=O)c2cc1OC` [Compound 22], for which the EC50 in series [1] (setting [15]), in series [2] (setting [16]) and in [4] was over 300 µM throughout. In series [3], this molecule showed a CC50 at 3 days of over 300 µM.

As to `COc1cc2cc(-c3cccc(C)c3)[nH]c(=O)c2cc1OC` [Compound 23], the EC50 in series [1] (setting [15]), in series [2] (setting [16]) and in [4] was over 300 µM throughout. The CC50 at 3 days in [3] was over 300 µM.

In the case of `CCC(CC)O[C@@H]1C=C(C(=O)O)C[C@H](N)[C@H]1NC(C)=O` [OSV-C, oseltamivir carboxylate, reference compound], the EC50 in series [1] (setting [15]) worked out at 0.05 µM; in series [2] (setting [16]), 0.03 µM; in [4], 0.37 µM. In series [3], this molecule registered a CC50 at 3 days of over 300 µM.

On to `NC(=O)c1ncn([C@@H]2O[C@H](CO)[C@@H](O)[C@H]2O)n1` [RBV, ribavirin, reference compound], for which the EC50 came to 25 µM in [1] (MDCK); 43.8 µM in [2] (H3N2, MDCK); 48.4 µM in series [4]. In series [3] (mock-infected MDCK cells), this molecule showed a CC50 at 3 days of over 300 µM.

“(-)-epigallocatechin-3-gallate [EGCG, reference compound]”: the “antiviral activity on exposure during viral adsorption” value in series [9] is reported as “blocked PR8 infection completely”.
